Laboratory results: ChEMBL document CHEMBL5380795, “Design, Synthesis, and Bioactivity Investigation of Cyclic Lipopeptide Antibiotics Containing Eight to Nine Amino Acids” (J Med Chem, 2023)
Converted amounts (≈) assume the structure as drawn. Bridge positions count the residues as written; N and C are the ends. Square brackets hold non-standard residues; d marks the D form. Peptide text beside a SMILES is read from it. * marks the point of attachment. X1 = CC[C@H](C)CCCCC(=O)*; Dab = NCC[C@H](N)C(=O)O

How the values were obtained:
Pseudomonas aeruginosa [1] = assay: Antibacterial activity against Pseudomonas aeruginosa; format: functional
Acinetobacter baumannii [2] = assay: Antibacterial activity against Acinetobacter baumannii; format: functional
Klebsiella pneumoniae [3] = assay: Antibacterial activity against Klebsiella pneumoniae; format: functional
Escherichia coli [4] = assay: Antibacterial activity against Escherichia coli; format: functional
[5] = Selectivity index, ratio of IC50 for cytotoxicity against human HK-2 cells to MIC for antibacterial activity against Escherichia coli ATCC BAA-2523; format: toxicity, cell-based
Staphylococcus aureus [6] = assay: Antibacterial activity against methicillin resistant Staphylococcus aureus ATCC 33591 assessed as inhibition of bacterial growth incubated for 18 to 24 hrs by broth microdilution method; format: functional; conditions: time 18-24 hrs
[7] = Cytotoxicity against human HK-2 cells assessed as inhibition of cell growth incubated for 72 hrs by CCK-8 assay; format: toxicity, cell-based
Escherichia coli [8] = assay: Antibacterial activity against Escherichia coli clinical isolate 19-2 assessed as inhibition of bacterial growth incubated for 18 to 24 hrs by broth microdilution method; format: functional; conditions: time 18-24 hrs
Pseudomonas aeruginosa [9] = assay: Antibacterial activity against Pseudomonas aeruginosa ATCC 27853 assessed as inhibition of bacterial growth incubated for 18 to 24 hrs by broth microdilution method; format: functional; conditions: time 18-24 hrs
Acinetobacter baumannii [10] = assay: Antibacterial activity against carbapenem resistant Acinetobacter baumannii clinical isolate 19-8 assessed as inhibition of bacterial growth incubated for 18 to 24 hrs by broth microdilution method; format: functional; conditions: time 18-24 hrs
[11] = system: Staphylococcus epidermidis; assay: Antibacterial activity against methicillin resistant Staphylococcus epidermidis clinical isolate 19-6 assessed as inhibition of bacterial growth incubated for 18 to 24 hrs by broth microdilution method; format: functional; conditions: time 18-24 hrs
Klebsiella pneumoniae [12] = assay: Antibacterial activity against KPC producing Klebsiella pneumoniae ATCC BAA-1705 assessed as inhibition of bacterial growth incubated for 18 to 24 hrs by broth microdilution method; format: functional; conditions: time 18-24 hrs
Klebsiella pneumoniae [13] = assay: Antibacterial activity against carbapenem resistant Klebsiella pneumoniae clinical isolate 19-17 assessed as inhibition of bacterial growth incubated for 18 to 24 hrs by broth microdilution method; format: functional; conditions: time 18-24 hrs
Escherichia coli [14] = assay: Antibacterial activity against Escherichia coli NCTC 13353 assessed as inhibition of bacterial growth incubated for 18 to 24 hrs by broth microdilution method; format: functional; conditions: time 18-24 hrs
Escherichia coli [15] = assay: Antibacterial activity against KPC producing Escherichia coli ATCC BAA-2340 assessed as inhibition of bacterial growth incubated for 18 to 24 hrs by broth microdilution method; format: functional; conditions: time 18-24 hrs
[16] = system: Staphylococcus epidermidis; assay: Antibacterial activity against methicillin resistant Staphylococcus epidermidis clinical isolate 19-5 assessed as inhibition of bacterial growth incubated for 18 to 24 hrs by broth microdilution method; format: functional; conditions: time 18-24 hrs
Pseudomonas aeruginosa [17] = assay: Antibacterial activity against Pseudomonas aeruginosa clinical isolate 19-1 assessed as inhibition of bacterial growth incubated for 18 to 24 hrs by broth microdilution method; format: functional; conditions: time 18-24 hrs
Klebsiella pneumoniae [18] = assay: Antibacterial activity against carbapenem resistant Klebsiella pneumoniae clinical isolate 19-15 assessed as inhibition of bacterial growth incubated for 18 to 24 hrs by broth microdilution method; format: functional; conditions: time 18-24 hrs
Pseudomonas aeruginosa [19] = assay: Antibacterial activity against carbapenem resistant Pseudomonas aeruginosa clinical isolate 17-1 assessed as inhibition of bacterial growth incubated for 18 to 24 hrs by broth microdilution method; format: functional; conditions: time 18-24 hrs
Staphylococcus aureus [20] = assay: Antibacterial activity against Staphylococcus aureus ATCC 29213 assessed as inhibition of bacterial growth incubated for 18 to 24 hrs by broth microdilution method; format: functional; conditions: time 18-24 hrs
Escherichia coli [21] = assay: Antibacterial activity against Escherichia coli ATCC BAA-2523 assessed as inhibition of bacterial growth incubated for 18 to 24 hrs by broth microdilution method; format: functional; conditions: time 18-24 hrs
Pseudomonas aeruginosa [22] = assay: Antibacterial activity against carbapenem resistant Pseudomonas aeruginosa clinical isolate 19-3 assessed as inhibition of bacterial growth incubated for 18 to 24 hrs by broth microdilution method; format: functional; conditions: time 18-24 hrs
Acinetobacter baumannii [23] = assay: Antibacterial activity against oxacillinase-27 producing Acinetobacter baumannii NCTC 13304 assessed as inhibition of bacterial growth incubated for 18 to 24 hrs by broth microdilution method; format: functional; conditions: time 18-24 hrs

Row | Compound | selectivity ratio [5] | MIC (Staphylococcus aureus [6]) [µg/mL] | IC50 at 72 h [7] [µg/mL] | MIC (Escherichia coli [8]) [µg/mL] | MIC (Pseudomonas aeruginosa [9]) [µg/mL] | MIC (Acinetobacter baumannii [10]) [µg/mL] | MIC [11] [µg/mL] | MIC (Klebsiella pneumoniae [12]) [µg/mL] | MIC (Klebsiella pneumoniae [13]) [µg/mL] | MIC (Escherichia coli [14]) [µg/mL] | MIC (Escherichia coli [15]) [µg/mL] | MIC [16] [µg/mL] | MIC (Pseudomonas aeruginosa [17]) [µg/mL] | MIC (Klebsiella pneumoniae [18]) [µg/mL] | MIC (Pseudomonas aeruginosa [19]) [µg/mL] | MIC (Staphylococcus aureus [20]) [µg/mL] | MIC (Escherichia coli [21]) [µg/mL] | MIC (Pseudomonas aeruginosa [22]) [µg/mL] | MIC (Acinetobacter baumannii [23]) [µg/mL] | further results
1 | CC[C@H](C)CCCCC(=O)N[C@@H](CCN)C(=O)N[C@H](C(=O)N[C@@H](CCN)C(=O)N[C@H]1CCNC(=O)[C@H]([C@@H](C)O)NC(=O)[C@H](CCN)NC(=O)[C@H](CCN)NC(=O)[C@H](CC(C)C)NC(=O)[C@@H](CC(C)C)NC(=O)[C@H](CCN)NC1=O)[C@@H](C)O (X1-[Dab]T[Dab][Dab][Dab][dL]L[Dab][Dab]T; lactam 4-C) | – | – | – | – | – | – | – | – | – | – | – | – | – | – | – | – | – | – | – | MIC (Pseudomonas aeruginosa [1]): 0.2 µg/mL (≈ 0.171 µM); MIC (Acinetobacter baumannii [2]): 1 µg/mL (≈ 0.855 µM); MIC (Klebsiella pneumoniae [3]): 1 µg/mL (≈ 0.855 µM); MIC (Escherichia coli [4]): 0.05 µg/mL (≈ 0.0428 µM)
2 | CC[C@H](C)CCCCC(=O)N[C@H](CCN)C(=O)N[C@H]1CCNC(=O)[C@H](CC(C)C)NC(=O)[C@H](CCN)NC(=O)[C@H](CCN)NC(=O)[C@H](CC(C)C)NC(=O)[C@@H](CC(C)C)NC(=O)[C@H](CCN)NC1=O | 10.9 | > 64 | 86.9 (≈ 88.6 µM) | 32 (≈ 32.6 µM) | 1 (≈ 1.02 µM) | 8 (≈ 8.16 µM) | 16 (≈ 16.3 µM) | 1 (≈ 1.02 µM) | 8 (≈ 8.16 µM) | 16 (≈ 16.3 µM) | 1 (≈ 1.02 µM) | 4 (≈ 4.08 µM) | 2 (≈ 2.04 µM) | 8 (≈ 8.16 µM) | 1 (≈ 1.02 µM) | > 64 | 8 (≈ 8.16 µM) | 2 (≈ 2.04 µM) | 8 (≈ 8.16 µM) | –
3 | CCCCCCCCCC(=O)N[C@H](CCN)C(=O)N[C@H]1CCNC(=O)[C@H]([C@@H](C)O)NC(=O)[C@H](CCN)NC(=O)[C@H](CCN)NC(=O)[C@H](CC(C)C)NC(=O)[C@@H](Cc2cccc(Cl)c2)NC(=O)[C@H](CCN)NC1=O | 21.3 | 64 (≈ 60.9 µM) | 42.5 (≈ 40.4 µM) | 2 (≈ 1.9 µM) | 32 (≈ 30.5 µM) | 16 (≈ 15.2 µM) | 2 (≈ 1.9 µM) | 2 (≈ 1.9 µM) | 4 (≈ 3.81 µM) | 4 (≈ 3.81 µM) | 1 (≈ 0.952 µM) | 2 (≈ 1.9 µM) | 2 (≈ 1.9 µM) | 4 (≈ 3.81 µM) | 32 (≈ 30.5 µM) | 32 (≈ 30.5 µM) | 2 (≈ 1.9 µM) | 2 (≈ 1.9 µM) | 16 (≈ 15.2 µM) | –
4 | CCCCCCCCCC(=O)N[C@H](CCN)C(=O)N[C@H]1CCNC(=O)[C@H]([C@@H](C)O)NC(=O)[C@H](CCN)NC(=O)[C@H](CCN)NC(=O)[C@H](CC(C)C)NC(=O)[C@@H](CC(C)C)NC(=O)[C@H](CCCN)NC1=O | < 4.3 | > 64 | 277 (≈ 278 µM) | > 64 | > 64 | > 64 | 32 (≈ 32.1 µM) | > 64 | > 64 | > 64 | > 64 | 4 (≈ 4.01 µM) | > 64 | > 64 | > 64 | > 64 | > 64 | > 64 | > 64 | –
5 | CCCCCCCCCC(=O)N[C@H](CCN)C(=O)N[C@H]1CCCNC(=O)[C@H]([C@@H](C)O)NC(=O)[C@H](CCN)NC(=O)[C@H](CCN)NC(=O)[C@H](CC(C)C)NC(=O)[C@@H](CC(C)C)NC(=O)[C@H](CCN)NC1=O | 9.9 | > 64 | 158 (≈ 159 µM) | 16 (≈ 16.1 µM) | 4 (≈ 4.01 µM) | > 64 | 32 (≈ 32.1 µM) | 16 (≈ 16.1 µM) | 64 (≈ 64.2 µM) | 32 (≈ 32.1 µM) | 16 (≈ 16.1 µM) | 4 (≈ 4.01 µM) | 4 (≈ 4.01 µM) | 16 (≈ 16.1 µM) | 4 (≈ 4.01 µM) | > 64 | 16 (≈ 16.1 µM) | 2 (≈ 2.01 µM) | > 64 | –
6 | CCCCCCCCCC(=O)N[C@H](CCN)C(=O)N[C@H]1CCNC(=O)[C@H]([C@@H](C)O)NC(=O)[C@H](CCN)NC(=O)[C@H](CCN)NC(=O)[C@H](CCCCCCCC)NC(=O)[C@@H](CC(C)C)NC(=O)[C@H](CCN)NC1=O | 9.1 | 8 (≈ 7.7 µM) | 9.1 (≈ 8.76 µM) | 1 (≈ 0.963 µM) | 2 (≈ 1.93 µM) | 8 (≈ 7.7 µM) | 2 (≈ 1.93 µM) | 2 (≈ 1.93 µM) | 2 (≈ 1.93 µM) | 2 (≈ 1.93 µM) | 1 (≈ 0.963 µM) | 1 (≈ 0.963 µM) | 2 (≈ 1.93 µM) | 2 (≈ 1.93 µM) | 4 (≈ 3.85 µM) | 8 (≈ 7.7 µM) | 1 (≈ 0.963 µM) | 2 (≈ 1.93 µM) | 4 (≈ 3.85 µM) | –
